Patent US9290455B2, “CDDO-Me amino acid conjugates and methods of use” (Trustees of Dartmouth College, priority 2014, dated 2016)

System: reactive oxygen species
Test: Reactive oxygen species in tBHP-challenged RAW cells (H2DCFA, flow cytometry)
Format: cell-based
Conditions: 100 nM for 18 hours, 250 μM tBHP for 15 minutes
Procedure: RAW264.7 cells were incubated with 10 and 100 nM of the synthetic triterpenoids for 18 hours, H2DCFA was then added for 30 minutes and the cells were challenged with 250 μM of tert-butyl hydroperoxide for 15 minutes to induce ROS. Mean fluorescence intensity of 50,000 cells was detected by flow cytometry. The results were obtained from three independent experiments.
The antioxidative activity of these compounds was explored as well. This experiment was based on the deacetylation and then oxidation of the non-fluorescent reagent 2′,7′-dichlorodihydrofluorescein diacetate (H2DCFA) to a fluorescent derivative. To study the effects of the TPs on oxidative stress, RAW cells were treated with 10-100 nM of the TPs for 18 hours. Cells were then incubated with 10 μM H2DCFA for […] and challenged with 250 μM of tert-butyl hydroperoxide (tBHP) for 15 minutes. The mean fluorescence intensity was measured by flow cytometry, using a 480 nm excitation wavelength and a 525 nm emission wavelength.

Q: Which “protection against ROS at 100 nM compared with 10 nM” value does the source give for `COC(=O)[C@]12CCC(C)(C)C[C@H]1[C@H]1C(=O)C=C3[C@@]4(C)C=C(C#N)C(=O)C(C)(C)[C@@H]4CC[C@@]3(C)[C@]1(C)CC2` [CDDO-Me, bardoxolone methyl] here?
A: Its value is “slightly better”.
